Test results published in patent US12403136B2, “Cannabinoid derivatives as pharmaceutically active compounds and methods of preparation thereof” (JAZZ PHARMACEUTICALS RESEARCH UK LIMITED, priority 2019, dated 2025).

Tested on: mouse model of generalised seizure (tonic hind limb extensor convulsions)
Assay: Maximal electroshock seizure threshold (MEST) test in the mouse
Details: for % change from vehicle: change in CC50; for CC50 +/− SEM: vehicle CC50 21.0 mA
Method: The efficacy of exemplary cannabinoid derivatives according to Formula I and Formula II were tested in a mouse model of generalised seizure, the maximal electroshock seizure threshold (MEST) test.
The maximal electroshock seizure threshold (MEST) test is widely utilized preclinically to evaluate pro- or anti-convulsant properties of test compounds (Loscher et al., 1991).
In the MEST test the ability of a drug to alter the seizure threshold current required to induce hind limb tonic extensor convulsions is measured according to an “up and down” method of shock titration (Kimball et al., 1957). An increase in seizure threshold is indicative of anti-convulsant effect.
Conversely, a reduction in seizure threshold is indicative of a pro-convulsant effect as observed with known convulsant agents such as picrotoxin.
The ability of a test compound to alter the stimulus intensity, expressed as current (mA), required to induce the presence of tonic hind limb extensor convulsions, is assessed in the MEST.
Naïve mice were acclimatised to the procedure room in their home cages for up to 7 days, with food and water available ad libitum.
All animals were weighed at the beginning of the study and randomly assigned to treatment groups based on a mean distribution of body weight across groups.
The first animal within a treatment group was given a shock at the expected or estimated CC50 current. For subsequent animals, the current was lowered or raised depending on the convulsions outcome from the preceding animal.
Data generated from each treatment group were used to calculate the CC50±SEM values for the treatment group.
Vehicle: (5% ethanol, 5% solutol in 90% Saline) was prepared as follows: 2 mL of ethanol, 2 mL of solutol were warmed to 60° C., in 36 mL of saline (1:1:18).
The test compounds used were 12a, 12b, 18a and 18b. Test compounds were administered at 200 mg/kg (i.p.) in a 1:1:18 ethanol:solutol:saline formulation.
The data for each treatment group were recorded as the number of +'s and 0's at each current level employed and this information is then used to calculate the CC50 value (current required for 50% of the animals to show seizure behaviour)±standard error.
Test compound effects were also calculated as percentage change in CC50 from the vehicle control group.
Significant difference between drug-treated animals and controls were assessed according to Litchfield and Wilcoxon (1949).

[1] = 200 mg/kg i.p., 120 min post dose
[2] = 200 mg/kg i.p., test 120 min post dose

Q: Which results are given for `C=C(C)[C@@H]1CCC(C)=C[C@H]1c1c(O)cc2c(c1O)[C@H](CC)CCC2` [Compound 12a]?
A: % change from vehicle (200 mg/kg i.p., 60 min post dose): 157%; CC50 +/− SEM (200 mg/kg i.p., test 60 min post dose): 54.0 +/− 0.2 mA

Q: Which results are given for `C=C(C)[C@@H]1CCC(C)=C[C@H]1c1c(O)cc2c(c1O)[C@H](CC)CCO2` [Compound 12b]?
A: % change from vehicle (200 mg/kg i.p., 30 min post dose): 109%; CC50 +/− SEM (200 mg/kg i.p., test 30 min post dose): 43.8 +/− 0.2 mA

Q: For `C=C(C)[C@@H]1CCC(C)=C[C@H]1c1c(O)cc(O)c2c1CCC[C@H]2CC` [Compound 18a], which “% change from vehicle” value [1] is on record?
A: 99%

Q: What about the “CC50 +/− SEM” value [2] of the same compound?
A: 41.8 +/− 0.5 mA

Q: `C=C(C)[C@@H]1CCC(C)=C[C@H]1c1c(O)cc(O)c2c1OCC[C@H]2CC` [Compound 18b] was tested. Which “% change from vehicle” value [1] did it give?
A: 92%

Q: What about the “CC50 +/− SEM” value [2] of the same compound?
A: 40.3 +/− 0.8 mA

Q: `CN1C(=O)CN=C(c2ccccc2)c2cc(Cl)ccc21` [Diazepam, diazepam, reference compound] was tested. Which “% change from vehicle” value (diazepam 2.5 mg/kg i.p., 30 min post dose) did it give?
A: 66%
